In ChEMBL document CHEMBL1153472 (Bioorg Med Chem Lett, 2009):

Key:
[1] = Cmax in po dosed dog; assay type: ADME, organism-based, Canis lupus familiaris; parameters: route oral; conditions: in vivo
[2] = target: Beta-1 adrenergic receptor (Homo sapiens, UniProt P08588); assay: Agonist activity at human recombinant adrenergic beta-1 receptor expressed in CHO cells assessed as stimulation of cAMP level after 1 hr by enzyme immunoassay; assay type: functional, cell-based
[3] = target: Beta-3 adrenergic receptor (Homo sapiens, UniProt P13945); assay: Agonist activity at human recombinant adrenergic beta3 receptor expressed in CHO cells assessed as stimulation of cAMP level after 1 hr by enzyme immunoassay; assay type: functional, cell-based
[4] = AUC (0 to 24 hrs) in po dosed dog; assay type: ADME, organism-based, Canis lupus familiaris; parameters: time < 24 hr, route oral; conditions: plasma
[5] = Total clearance in iv dosed dog; assay type: ADME, organism-based, Canis lupus familiaris; conditions: in vivo
[6] = Half life in iv dosed dog; assay type: ADME, organism-based, Canis lupus familiaris; conditions: in vivo
[7] = Oral bioavailability in dog; assay type: ADME, organism-based, Canis lupus familiaris; conditions: in vivo
Canis familiaris = assay: Inhibition of carbachol-induced increase in intravesical pressure in intraduodenally dosed Beagle dog overactive bladder model administered after carbachol challenge followed by reinjection of carbachol 30 mins post drug dose measured for 180 mins; assay type: functional; conditions: Canis lupus familiaris, intraduodenal
[8] = target: Beta-2 adrenergic receptor (Homo sapiens, UniProt P07550); assay: Agonist activity at human recombinant adrenergic beta2 receptor expressed in CHO cells assessed as stimulation of cAMP level after 1 hr by enzyme immunoassay; assay type: functional, cell-based
[9] = Protein binding in dog; assay type: ADME, organism-based, Canis lupus familiaris; conditions: in vivo, read-out: PB (converted)
[10] = target: Beta-3 adrenergic receptor (Canis lupus familiaris, UniProt O02662); assay: Agonist activity at dog recombinant adrenergic beta3 receptor expressed in CHO cells assessed as stimulation of cAMP level after 1 hr by enzyme immunoassay; assay type: functional, cell-based
Chain of Beta-3 adrenergic receptor (Canis lupus familiaris, UniProt O02662) (O02662 whole entry): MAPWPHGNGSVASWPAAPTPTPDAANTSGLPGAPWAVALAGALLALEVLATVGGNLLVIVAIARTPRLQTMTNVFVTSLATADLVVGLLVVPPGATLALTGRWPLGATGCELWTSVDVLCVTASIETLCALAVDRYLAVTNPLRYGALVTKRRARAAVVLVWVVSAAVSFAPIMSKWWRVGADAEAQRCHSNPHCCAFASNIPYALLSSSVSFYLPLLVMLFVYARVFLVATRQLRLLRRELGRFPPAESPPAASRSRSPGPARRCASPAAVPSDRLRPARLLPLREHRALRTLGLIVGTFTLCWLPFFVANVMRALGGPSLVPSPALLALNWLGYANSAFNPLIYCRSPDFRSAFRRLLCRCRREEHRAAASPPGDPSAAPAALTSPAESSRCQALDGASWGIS

Chain of Beta-3 adrenergic receptor (Homo sapiens, UniProt P13945) (P13945 whole entry): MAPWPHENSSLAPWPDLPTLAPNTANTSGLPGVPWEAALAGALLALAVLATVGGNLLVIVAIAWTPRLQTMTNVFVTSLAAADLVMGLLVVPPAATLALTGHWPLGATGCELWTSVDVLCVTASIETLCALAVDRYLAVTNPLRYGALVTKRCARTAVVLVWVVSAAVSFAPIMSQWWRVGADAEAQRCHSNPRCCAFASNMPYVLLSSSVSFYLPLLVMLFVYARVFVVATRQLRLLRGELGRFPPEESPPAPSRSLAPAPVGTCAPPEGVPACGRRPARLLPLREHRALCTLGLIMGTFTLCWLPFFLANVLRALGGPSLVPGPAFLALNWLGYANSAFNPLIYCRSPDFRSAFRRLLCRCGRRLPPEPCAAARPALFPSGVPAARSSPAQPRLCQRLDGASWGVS
Chain of Beta-1 adrenergic receptor (P08588 whole entry): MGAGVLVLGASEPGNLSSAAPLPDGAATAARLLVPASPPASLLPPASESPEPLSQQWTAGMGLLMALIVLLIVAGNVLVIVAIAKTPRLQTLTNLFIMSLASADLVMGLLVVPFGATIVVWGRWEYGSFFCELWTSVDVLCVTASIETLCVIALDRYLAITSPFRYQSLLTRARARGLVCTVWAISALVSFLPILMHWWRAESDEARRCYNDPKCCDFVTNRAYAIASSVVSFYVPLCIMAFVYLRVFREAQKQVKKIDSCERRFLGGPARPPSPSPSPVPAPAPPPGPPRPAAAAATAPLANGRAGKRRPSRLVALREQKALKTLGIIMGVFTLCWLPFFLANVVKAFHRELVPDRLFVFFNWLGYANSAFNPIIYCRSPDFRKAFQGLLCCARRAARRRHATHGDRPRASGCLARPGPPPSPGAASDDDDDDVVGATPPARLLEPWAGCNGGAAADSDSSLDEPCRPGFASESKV
Chain of Beta-2 adrenergic receptor (P07550 whole entry): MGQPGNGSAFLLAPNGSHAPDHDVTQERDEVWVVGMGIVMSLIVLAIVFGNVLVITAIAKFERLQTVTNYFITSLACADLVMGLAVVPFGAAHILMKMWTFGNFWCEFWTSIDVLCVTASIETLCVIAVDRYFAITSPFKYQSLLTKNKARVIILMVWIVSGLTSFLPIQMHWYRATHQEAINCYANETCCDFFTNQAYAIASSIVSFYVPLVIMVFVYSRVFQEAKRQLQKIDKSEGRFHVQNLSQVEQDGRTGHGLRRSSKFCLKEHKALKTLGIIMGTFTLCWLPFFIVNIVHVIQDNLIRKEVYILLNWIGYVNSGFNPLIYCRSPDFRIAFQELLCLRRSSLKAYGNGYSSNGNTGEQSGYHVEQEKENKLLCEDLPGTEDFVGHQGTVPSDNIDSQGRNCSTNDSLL

| Cmax [1] [ng/mL] | EC50 [2] [nM] | EC50 [3] [nM] | AUC(0-t) at 24 h [4] [ng·h/mL] | clearance [5] [mL/min/kg] | half-life [6] [h] | bioavailability [7] [%] | EC50 [8] [nM] | fraction unbound [9] | EC50 [10] [nM] | Structure (SMILES) | ED50 (Canis familiaris) [mg/kg] |
| --- | --- | --- | --- | --- | --- | --- | --- | --- | --- | --- | --- |
| 1.1 | 150 | 0.26 | 4.4 | – | – | – | – | – | – | CC(C)Oc1cc(-c2ccc(CCNC[C@H](O)c3ccc(O)c(NS(C)(=O)=O)c3)cc2)ccc1C(=O)NS(C)(=O)=O | – |
| – | > 1000 | 28 | – | – | – | – | – | – | – | COc1ccc([C@@H](O)[C@H](C)NCCc2ccc(-c3ccc(C(=O)NS(C)(=O)=O)c(OC4CCCCC4)c3)cc2)cc1 | – |
| 16.2 | > 1000 | 0.23 | 86.5 | 8.9 | 1.8 | 43 | – | – | – | CC(=O)Nc1ccc([C@@H](O)CNCCc2ccc(-c3ccc(C(=O)NS(C)(=O)=O)c(OC4CCCCC4)c3)cc2)cn1 | – |
| 23.2 | 290 | 0.16 | 117 | 7.9 | 6.7 | 56 | > 10000 | 0.1 | 1 | CC(C)Oc1cc(-c2ccc(CCN[C@@H](C)[C@H](O)c3ccc(O)cc3)cc2)ccc1C(=O)NS(C)(=O)=O | 5.9 |
| – | > 1000 | – | – | – | – | – | – | – | – | CS(=O)(=O)NC(=O)c1ccc(-c2ccc(CCNC[C@H](O)c3ccc(N)cc3)cc2)cc1OC1CCCCC1 | – |
| – | > 1000 | – | – | – | – | – | – | – | – | CC(C)Oc1cc(-c2ccc(CCNC[C@H](O)c3ccc(N)cc3)cc2)ccc1C(=O)NS(C)(=O)=O | – |
| – | 73 | 0.1 | – | – | – | – | – | – | – | CC(C)Cc1cc(-c2ccc(C[C@@H](C)NC[C@H](O)c3ccccc3)cc2)ccc1C(=O)NS(C)(=O)=O | – |
| 59.1 | > 1000 | 0.82 | 654 | 2.4 | 5 | 95 | – | – | – | CS(=O)(=O)NC(=O)c1ccc(-c2ccc(C[C@@H](CO)NC[C@H](O)c3ccccc3)cc2)cc1OC1CCCCC1 | – |
| 6.1 | > 1000 | 1.2 | 79.3 | – | – | – | – | – | – | CS(=O)(=O)NC(=O)c1ccc(-c2ccc(CCNC[C@H](O)c3cccc(N)c3)cc2)cc1OC1CCCCC1 | – |
| 17.2 | > 1000 | 6 | 143 | 5.1 | 4.9 | 46 | – | – | – | CC(C)Oc1cc(-c2ccc(CCNC[C@H](O)c3cccc(N)c3)cc2)ccc1C(=O)NS(C)(=O)=O | – |
| 2.9 | 130 | 0.044 | 7.3 | – | – | – | – | – | – | CC(C)Oc1cc(-c2ccc(CCN[C@@H](C)[C@H](O)c3cccc(O)c3)cc2)ccc1C(=O)NS(C)(=O)=O | – |
| 5.3 | 110 | 0.35 | 39.7 | 11 | 3.5 | 25 | > 10000 | – | – | C[C@H](NCCc1ccc(-c2ccc(C(=O)NS(C)(=O)=O)c(OC3CCCCC3)c2)cc1)[C@H](O)c1ccc(O)cc1 | – |
